Data as given in patent publication US7393839B2, “Polymorphic antiviral nucleoside compounds” (Roche Palo Alto LLC, priority 2003, dated 2008).
Where a name gives a salt, the structure may show the parent alone.

Columns and labels:
[1] = Thermal stability on modulated temperature x-ray diffractometer; assay type: physicochemical; conditions: for thermal stability of crystalline form: monohydrochloride
Vacuum drying of Form B = assay type: physicochemical
[2] = Physical stability of Form B on storage; assay type: physicochemical; conditions: ambient temperature, 25° C./60% RH, 30° C./60% RH, 40° C./75% RH, at least 4 weeks
From the text: The Form B-polymorph was crystallized from water and formed platelets (FIG. 3B). […] (FIG. 5B) corresponding to approximately one mole of water per mole of Ib.

Th1 cytokine expression = conditions: antiviral Th1 cytokine expression; cited from earlier work
[3] = compared with ribavirin; cited from earlier work
HCV = conditions: unlike ribavirin; cited from earlier work
[4] = Vapor sorption analysis (hygroscopicity); assay type: physicochemical
From the text: Vapor sorption analysis was used to assess the hygroscopicity of the Form A polymorph. The experiment was run in an isothermal mode and the sample weight recorded as the relative humidity was varied. During the adsorption phase Ib gained 0.5 wt % between 5% relative humidity (RH) and 85% RH. […] At the end of the analysis the sample was still solid and appeared to be crystalline. After the TGA analysis a portion of the sample was recovered and analyzed by DSC. The DSC thermograms of the starting material and of the material recovered following vapor sorption analysis were superimposable.
The experimental protocol was set up to dry the sample at 60° C. for a maximum of 1 h or until an equilibrium condition was reached which fluctuated less then 0.02 wt % in 5 min. The experiment was run isothermally at 25° C., and the %RH was increased from 5% to 95% in 10% increments. After each increment the sample held constant until equilibrium was reached. Equilibrium was defined as a per cent weight change of not more than 0.005 wt % in 5.00 minutes. After reaching 95% RH the RH was lowered back to 5% RH. If equilibrium was not reached within 2 hours, the %RH was advanced to the next programmed level.

[5] = Accelerated stability study (Form A): temperature, humidity, light; assay type: physicochemical
Method: Stability samples were evaluated for appearance, water content, chemical stability using an HPLC method and physical stability using DSC, specific rotation and x-ray powder diffraction methods. Photochemical stability was assessed by comparison with a control sample that was wrapped in aluminum foil and set side by side with the light sample in the light chamber.
DSC Thermograms were collected using a 2920 Modulated DSC from Thermal Analyzer (TA) Instruments. The heating rate was 10° C./min with a nitrogen purge maintained throughout the run.
Chromatography was carried out on a Zorbax SB-CN, 4.6×150 mm, 3.5 μm column. A ternary solvent gradient was used comprised of (A) water, (B) acetonitrile and (C) 200 mM heptane sulfonic acid sodium salt, monohydrate with 1% phosphoric acid in water. To prepare 500 mL of the solution, dissolve 22.0 g of 1-heptane sulfonic acid sodium salt, monohydrate in about 400 mL of water. Add 5 mL of phosphoric acid, 85% and then dilute to a volume of 500 mL with water and mix thoroughly. A flow rate of 1.0 mL/m was used. The column was run isocratically with 90% A and 10% C for 5 m. A linear gradient to 20% A, 70% B and 10% C was run over 20 m. This mixture was run isocratically for an addition 5 m after which the solvent was ramped back to 90% A and […] over 2 m followed by 8 m to reequilibrate the column. The column was maintained at 40° C.

Bulk and tap density = assay type: physicochemical
Method: The bulk density of Ib was determined Vanderkamp™ tap density tester, with an acoustic cabinet, or equivalent (Van-Kel Industries, Inc., 36 Meridian Road, Edison, N.J. 08820) apparatus following. Ib was passed through a 20 mesh. A powder funnel was placed on top of a cylinder and the powder was transferred rapidly in to the cylinder while avoiding agitation or tapping of the cylinder and the lower funnel. The sample weight in the cylinder was determined and the bulk density was calculated.
The tapped density was determined by measuring the volume of drug substance in a 25 mL graduated cylinder after 300 taps of a known amount of drug substance. The apparatus used was a VanderKamp Tapped Density Tester. The tapped density was calculated as the known weight of drug substance divided by the measured volume.

[6] = heating from room temperature to 175° C.
[7] = Light Control (wrapped in aluminum foil), ICH Q1B

For “2-(S)-amino-3-methyl-butyric acid 5S-(3-carbamoyl-[1,2,4]triazol-1-yl)-3R,4S-dihydroxy-tetrahydrofuran-2S-yl methyl ester, monohydrochloride [Form B]”, the “crystalline form after heating and cooling” value ([1]; from 32° C. to 140° C.) was “conversion of Form B into Form A”, the “temperature above which Form B was converted into Form A” value [1, 6] was “above 80 °C” and the “thermal stability of crystalline form” value [1, 6] was “unstable”. The “crystalline form after vacuum drying” value (Vacuum drying of Form B; at elevated temperature) was “conversion of Form B to Form A”, the “crystalline form after vacuum drying” value (Vacuum drying of Form B; in the absence of heat) was “stable” and the “physical stability on storage” value [2] was “physically stable”.
In the case of `NC(=O)c1ncn([C@H]2O[C@@H](CO)[C@H](O)[C@@H]2O)n1` [Levovirin, 1-(3S,4R-dihydroxy-5S-hydroxymethyl-tetrahydro-furan-2S-yl)-1H-[1,2,4]triazole-3-carboxylic acid amide], the immune response (Th1 cytokine expression) is listed as “stimulates immune responses by enhancing antiviral Th1 cytokine expression”, the toxicity [3] is listed as “appears to lack toxicity associated with ribavirin” and the direct antiviral activity (HCV) is listed as “does not have direct detectable antiviral activity”.
In the case of “2-(S)-amino-3-methyl-butyric acid 5S-(3-carbamoyl-[1,2,4]triazol-1-yl)-3R,4S-dihydroxy-tetrahydrofuran-2S-yl methyl ester, monohydrochloride [Form A]”, the hygroscopicity ([4]; 5%-95%-5% RH cycle, 25° C.) is reported as “not hygroscopic”, the “DSC thermograms of starting material and material recovered following vapor sorption analysis” value ([4]; after 5%-95%-5% RH cycle) is reported as “superimposable” and the “weight gained during adsorption phase” value ([4]; between 5% RH and 85% RH, isothermal 25° C.) is reported as 0.5 wt %. For the same compound, the “weight increase during adsorption phase” value ([4]; between 85% and 95% RH, isothermal 25° C.) was under 2.5 weight percent, the “weight change during desorption phase” value ([4]; same %RH ranges, desorption) was “virtually all of the weight gained in the adsorption phase was lost” and the “thermal stability of crystalline form” value [1, 6] was “did not change its crystalline form”. For the same compound, the “% Purity (ext. std)” value ([5]; 2–8° C., 3 months) was 99.9%, the Appearance ([5]; 2–8° C., 3 months) was “White to off-white” and the “% Purity (ext. std)” value ([5]; 2–8° C., 4 weeks) was 100.4%. For the same compound, the Appearance ([5]; 2–8° C., 4 weeks) was “White crystalline”, the “% Purity (ext. std)” value ([5]; 25° C. 60% RH, 3 months) was 99.8% and the Appearance ([5]; 25° C. 60% RH, 3 months) was “White to off-white”. The “% Purity (ext. std)” value ([5]; 25° C. 60% RH, 4 weeks) was 100.2%, the Appearance ([5]; 25° C. 60% RH, 4 weeks) was “White crystalline” and the “% Purity (ext. std)” value ([5]; 30° C. 60% RH, 3 months) was 100.2%. The Appearance ([5]; 30° C. 60% RH, 3 months) was “White to off-white”, the “% Purity (ext. std)” value ([5]; 30° C. 60% RH, 4 weeks) was 100.7% and the Appearance ([5]; 30° C. 60% RH, 4 weeks) was “White crystalline”. The “% Purity (ext. std)” value ([5]; 40° C. 75% RH, 3 months) was 100.1%, the Appearance ([5]; 40° C. 75% RH, 3 months) was “White to off-white” and the “% Purity (ext. std)” value ([5]; 40° C. 75% RH, 4 weeks) was 100.6%. The Appearance ([5]; 40° C. 75% RH, 4 weeks) was “White crystalline”, the “% Purity (ext. std)” value ([5]; 60° C., 3 months) was 98.7% and the Appearance ([5]; 60° C., 3 months) was “White to off-white”. The “% Purity (ext. std)” value ([5]; 60° C., 4 weeks) was 100.8%, the Appearance ([5]; 60° C., 4 weeks) was “White crystalline” and the “% Purity (ext. std)” value [5, 7] was 100.9%. The Appearance [5, 7] was “White crystalline”, the “% Purity (ext. std)” value ([5]; Light, ICH Q1B) was 100.9% and the Appearance ([5]; Light, ICH Q1B) was “White crystalline”. The “% Purity (ext. std)” value ([5]; RT, Initial) was 98.1% and the Appearance ([5]; RT, Initial) was “White crystalline”.
With `CC(C)C(N)C(=O)OC[C@@H]1O[C@H](n2cnc(C(N)=O)n2)[C@@H](O)[C@H]1O` (stereo partly drawn) [Ib, 2-(S)-amino-3-methyl-butyric acid 5S-(3-carbamoyl-[1,2,4]triazol-1-yl)-3R,4S-dihydroxy-tetrahydrofuran-2S-yl methyl ester, monohydrochloride] the “change in DSC thermograms, specific rotation, water content, x-ray diffraction pattern and purity” value ([5]; over the study period, all storage conditions) was “no discernable change”, the bulk density (Bulk and tap density) was 0.35 g/mL and the tapped density (Bulk and tap density; after 300 taps) was 0.58 g/mL.
